Nine molecules from PubChem BioAssay (NCI) can be followed below.

Among the test systems are BT-549 breast; DU-145 prostate; HCT-116 colon; MOLT-4 leukemia; NCI-H460 lung; SK-MEL-28 melanoma; SK-MEL-5 melanoma; SN12C renal; SNB-19 CNS; U251 CNS.
Experiment in all cases: growth of human tumour cells (NCI), 48 h

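Protocol summary: plate cells (96-well), add compound at 5 concentrations, incubate 48 h, interpolate endpoints linearly. GI50 marks 50% less growth. Definition used: TGI = concentration required for complete inhibition of growth.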

As to `O=C(Nc1cccc(-n2cc(-c3ccncc3)c(-c3ccc(O)c(Cl)c3)n2)c1)c1cc(C(F)(F)F)cc(C(F)(F)F)c1`, the GI50 in the assay on BT-549 breast is 4.34 µM; with DU-145 prostate, 12.6 µM; in the assay with HCT-116 colon, 2.88 µM; in the assay with MOLT-4 leukemia, 2.88 µM; in the assay with NCI-H460 lung, 1.9 µM; in the assay on SK-MEL-28 melanoma, 10.3 µM. Further, the GI50 in the assay with SK-MEL-5 melanoma was 4.61 µM; with SN12C renal, 7.04 µM; with SNB-19 CNS, 12.8 µM; in the assay on U251 CNS it was 2.54 µM. The TGI is 46.6 µM in the assay on BT-549 breast; more than 50 µM with DU-145 prostate; more than 50 µM in the assay on HCT-116 colon; more than 50 µM in the assay on MOLT-4 leukemia; more than 50 µM with NCI-H460 lung; more than 50 µM in the assay on SK-MEL-28 melanoma. Besides, the TGI in the assay with SK-MEL-5 melanoma is 16.9 µM; in the assay with SN12C renal, more than 50 µM; in the assay with SNB-19 CNS, more than 50 µM; with U251 CNS it was more than 50 µM.
Take `CCOc1ccc2c(c1)CN(Cc1ccc(Cl)cc1)CO2`: the GI50 with BT-549 breast is 17.6 µM; in the assay with DU-145 prostate, 22.8 µM; in the assay on HCT-116 colon, 14.8 µM; in the assay with MOLT-4 leukemia, 19.3 µM; in the assay on NCI-H460 lung, 16 µM; with SK-MEL-28 melanoma, 14.4 µM. In addition, the GI50 in the assay on SK-MEL-5 melanoma was 15.2 µM; with SN12C renal, 25.9 µM; in the assay on SNB-19 CNS, 24.6 µM; in the assay with U251 CNS, 16.1 µM. The TGI in the assay on BT-549 breast was determined as 36.8 µM; in the assay with DU-145 prostate, 53.2 µM; in the assay with HCT-116 colon, 29 µM; with MOLT-4 leukemia it was 67.5 µM; in the assay with NCI-H460 lung, 32.4 µM; with SK-MEL-28 melanoma, 28.4 µM. In addition, the TGI with SK-MEL-5 melanoma was 28.9 µM; in the assay with SN12C renal it was more than 100 µM; with SNB-19 CNS, more than 100 µM; in the assay on U251 CNS, 33.2 µM.
On to `CC(c1ccccc1)[C@@H](C(=O)Nc1ccc(I)cc1F)N1C(=O)N[C@H](c2ccc(OC[C@H](O)CO)cc2)C1=O` (some centres not stated), for which the GI50 with BT-549 breast was 9.17 µM; in the assay with DU-145 prostate, 15.3 µM; in the assay with HCT-116 colon, 1.12 µM; with MOLT-4 leukemia, 12.5 µM; in the assay on NCI-H460 lung it was more than 14.6 µM; with SK-MEL-28 melanoma, 0.026 µM. Further, the GI50 in the assay with SK-MEL-5 melanoma is 0.85 µM; in the assay with SN12C renal, 6.14 µM; in the assay on SNB-19 CNS, 6.63 µM; with U251 CNS, 7.86 µM. Further, the TGI in the assay on BT-549 breast was more than 23.7 µM; in the assay with DU-145 prostate it was more than 25 µM; in the assay on HCT-116 colon, more than 25 µM; with MOLT-4 leukemia, more than 25 µM; with NCI-H460 lung, more than 25 µM; with SK-MEL-28 melanoma, more than 25 µM. The TGI in the assay on SK-MEL-5 melanoma, in the assay on SN12C renal, with SNB-19 CNS and with U251 CNS was more than 25 µM each time.
Regarding `O=C(Nc1ccccc1C(F)(F)F)c1ccc(NC2=C(Cl)C(=O)N(Cc3ccccc3)C2=O)cc1`, the GI50 with BT-549 breast is 24 µM; with DU-145 prostate, 34.2 µM; in the assay with HCT-116 colon it was 29.4 µM; in the assay with MOLT-4 leukemia, 3.14 µM; in the assay with NCI-H460 lung it was 33.2 µM; in the assay with SK-MEL-28 melanoma, more than 100 µM. The GI50 in the assay with SK-MEL-5 melanoma is 48.7 µM; with SN12C renal it was 18.6 µM; in the assay on SNB-19 CNS it was 36.6 µM; in the assay on U251 CNS, 23.5 µM. Besides, the TGI in the assay with BT-549 breast was 58.3 µM; in the assay with DU-145 prostate, more than 100 µM; in the assay on HCT-116 colon it was more than 100 µM; in the assay on MOLT-4 leukemia it was 31.6 µM; in the assay on NCI-H460 lung it was more than 100 µM; in the assay on SK-MEL-28 melanoma, more than 100 µM. The TGI with SK-MEL-5 melanoma, in the assay with SN12C renal, with SNB-19 CNS and with U251 CNS was more than 100 µM each time.
`C[C@H](CS)C(=O)N1c2ccccc2C[C@H]1C(=O)O`: the TGI with BT-549 breast, in the assay with DU-145 prostate, in the assay on HCT-116 colon, with MOLT-4 leukemia, in the assay on NCI-H460 lung and in the assay on SK-MEL-28 melanoma was more than 100 µM each time. In addition, the TGI with SK-MEL-5 melanoma, in the assay with SN12C renal, in the assay on SNB-19 CNS and in the assay with U251 CNS was more than 100 µM throughout.
With `CN(C)Cc1ccc(C(C)(C)C)cc1-c1cc(C(C)(C)C)ccc1CN(C)C`, the TGI in the assay with BT-549 breast, with DU-145 prostate, in the assay on HCT-116 colon, in the assay on MOLT-4 leukemia, in the assay on NCI-H460 lung and with SK-MEL-28 melanoma was more than 100 µM in each case. In addition, the TGI in the assay on SK-MEL-5 melanoma, in the assay on SN12C renal, in the assay on SNB-19 CNS and in the assay on U251 CNS was more than 100 µM each time.
With `CC[C@]1(O)CC2CN(CCc3c([nH]c4ccccc34)[C@@](C(=O)OC)(c3cc4c(cc3OC)N(C=O)[C@H]3[C@@](O)(C(=O)OC)[C@H](OC(C)=O)[C@]5(CC)C=CCN6CC[C@]43[C@@H]65)C2)C1` (some centres not stated), the GI50 with BT-549 breast is 0.00665 µM; in the assay on DU-145 prostate, less than 0.005 µM; in the assay on HCT-116 colon, less than 0.005 µM; in the assay on MOLT-4 leukemia it was less than 0.005 µM; in the assay with NCI-H460 lung it was less than 0.005 µM; in the assay on SK-MEL-28 melanoma it was less than 0.005 µM. Besides, the GI50 in the assay on SK-MEL-5 melanoma, in the assay on SN12C renal, with SNB-19 CNS and with U251 CNS was less than 0.005 µM in each case. Moreover, the TGI with BT-549 breast is 0.149 µM; in the assay on HCT-116 colon, more than 50 µM; with NCI-H460 lung, more than 50 µM; with SK-MEL-28 melanoma, more than 50 µM; with SK-MEL-5 melanoma, 0.059 µM; with SN12C renal it was more than 50 µM. The molecule also registered a TGI in the assay on SNB-19 CNS of more than 50 µM.
On to `COc1ccc(Cl)cc1Nc1nc(C(F)(F)F)ccc1C(=O)N/N=C/c1cccnc1`, for which the GI50 in the assay with BT-549 breast was 1.99 µM; with DU-145 prostate it was 7.22 µM; in the assay with HCT-116 colon, 3.43 µM; in the assay on MOLT-4 leukemia, 1.66 µM; in the assay on NCI-H460 lung, 4.03 µM; in the assay with SK-MEL-28 melanoma it was 3.95 µM. In addition, the GI50 was 2.64 µM with SK-MEL-5 melanoma, 7.78 µM with SN12C renal, 3.78 µM in the assay on SNB-19 CNS and 2.4 µM in the assay with U251 CNS. In addition, the TGI with BT-549 breast, in the assay on DU-145 prostate, in the assay with HCT-116 colon, with MOLT-4 leukemia, in the assay with NCI-H460 lung and in the assay on SK-MEL-28 melanoma was more than 100 µM in each case. Also, the TGI with SK-MEL-5 melanoma was 65.3 µM; in the assay with SN12C renal it was more than 100 µM; in the assay on SNB-19 CNS, more than 100 µM; in the assay on U251 CNS it was more than 100 µM.
Regarding `O=CNc1ccc(S(=O)(=O)c2ccc(NC=O)cc2)cc1`, the TGI with BT-549 breast, in the assay with DU-145 prostate, in the assay with HCT-116 colon, in the assay on MOLT-4 leukemia, in the assay on NCI-H460 lung and in the assay with SK-MEL-28 melanoma was more than 100 µM each time. In addition, the TGI in the assay on SK-MEL-5 melanoma, in the assay with SN12C renal, in the assay on SNB-19 CNS and with U251 CNS was more than 100 µM in each case.
